Data taken from patent publication US20110065694A1 (priority 2009, published 2011).

What was measured:
Sprague-Dawley rats = assay: Rat EEG assay; type: in vivo; conditions: for number of wake and non-REM sleep bouts / wake bout duration / wake promotion / time spent in REM sleep / time spent in non-REM sleep / time spent in wake: EEG; for normalized power in the 40-60 Hz range (EEG spectral analysis): EEG spectra; for wake promotion: first 6 hours post-dosing; for time spent in REM sleep / time spent in non-REM sleep / time spent in wake: relative to vehicle treated animals
Experimental: The rat EEG assay was designed to measure electrical signals from the brain as a proxy for in vivo biological activity at the H3 receptor.
Specifically, animals were housed in a temperature-controlled recording room under a 12 hour/12 hour light/dark cycle, with food and water available ad libitum. Eight male Sprague-Dawley rats were implanted with chronic recording devices for continuous recordings of electroencephalograph (EEG) via telemetry (Data Sciences Inc). A repeated measures design was employed in which each rat received eight separate dosings of the compound being tested with a minimum of 3 days between doses. […] EEG data were scored visually in 10 second epochs for wake, REM, and non-REM states. Scored data were analyzed and expressed as time spent in each state per hour. Cumulative time spent in wake, non-REM, and REM states were calculated for the 6 hour recording period. To determine whether any of the pharmacological treatments affected the consolidation of behavioral states, the duration and number of bouts for each state were calculated in hourly bins. A “bout” consisted of a minimum of two consecutive 10-second epochs of a given state and ended with any single state change epoch. The EEG spectra during wake and non-REM sleep were analyzed offline with a fast Fourier transform algorithm (NeuroScore software, Data Sciences Inc) on all epochs without a visually detectable artifact. Wake EEG spectra were analyzed in 1 Hz bins. Data were analyzed using two-way repeated-measures ANOVA.
For both compounds, there was an increase in the time spent in wake, a decrease in the time spent in non-REM sleep, and no change in the time spent in REM sleep relative to vehicle treated animals.

[1] = target: human histamine H3 receptor (Homo sapiens, UniProt Q9Y5N1); assay: H3 GTPγS assay (SPA method), histamine H3 in vitro assay; type: biochemical; conditions: membranes of cells expressing human H3; GTPγ[35S] SPA; antagonist testing with reference agonist at EC80 (30 nM); in one embodiment HCl salts tested; read-out: Potency (functional potency as indicated by IC50)
Experimental: Briefly, cells expressing the human histamine H3 receptor were homogenized in 15 mM Tris-HCl pH 7.5, 2 mM MgCl2, 0.3 mM EDTA, and 1 mM EGTA. […] Membranes were frozen in liquid nitrogen until use. On the day of the assay, membranes were thawed and diluted in assay buffer (20 mM HEPES pH 7.4, 100 mM NaCl, 10 μg/ml saponin, 1 mM MgCl2) to give 500 μg/ml and mixed (v/v) with GDP in assay buffer for a final GDP concentration of 10 μM and incubated on ice for at least […]. PVT-WGA beads (Amersham, RPNQ001) were diluted in assay buffer at 50 mg/mL and mixed with GTPγ[^35S] (Amersham, SJ1308) diluted in assay buffer to give ˜25,000 dpm/10 μL and mixed vol/vol just before the start of the reaction.
For antagonists testing, 10 μL of a reference agonist ([…]) instead of 10 μL buffer was added at a concentration corresponding to the EC80 (30 nM).
The compounds provided herein were tested in the histamine H3 in vitro assay. In one embodiment, the respective HCl salts of the compounds provided herein were prepared using standard chemical procedures and tested in the histamine H3 in vitro assay.

H3 receptor = target: T1, H3 receptor (Rattus norvegicus, UniProt Q9QYN8); assay: Rat H3 ex vivo receptor occupancy assay; conditions: dose giving 50% H3 receptor occupancy; ex vivo binding of [3H] R-α-methylhistamine in rat frontal cortical membranes
T1 construct: membranes to be tested were prepared from brain frontal cortex membranes by homogenization; from tissue; host or cells: frontal cortex of adult male Sprague-Dawley rats
Experimental: This assay was designed to measure occupancy of H3 receptors by compounds provided herein by measuring the competition of binding to the H3 receptor with a radiolabeled ligand known to bind to the H3 receptor. More specifically, receptor occupancy was determined by ex vivo binding studies in rat cortical membranes.
Adult male Sprague-Dawley rats were treated with vehicle or compound at four different dose levels. After an appropriate pre-treatment time (typically 30 min to 1 hr), membranes to be tested were prepared from brain frontal cortex membranes by homogenization in ice-cold assay buffer. Frontal cortical membranes (400 μL containing an equivalent of 5 mg wet weight of tissue/tube) were incubated with 50 µL of [^3H] R-α-methylhistamine (final concentration 2 nM) and either 50 μL of buffer (total binding) or 50 μL of imetit (10 μM; non-specific binding) for 30 min at 25° C. in triplicates. Membrane bound radioactivity was recovered by filtration under vacuum through Skatron 11731 filters, pre-soaked in 0.5% PEI. Filters were rapidly washed with ice-cold 50 mM Tris buffer (wash setting 9,9,0) and radioactivity was determined by liquid scintillation counting (1 mL Packard MV Gold Scintillator). The amount of radioactivity in the membranes at the different doses was used generate a dose response curve and to calculate the ED50 (the dose that results in 50% receptor occupancy).
ED50 is the amount of drug at which 50% of the H3 receptors are occupied by the drug as measured by the amount of radioactivity measured at that dose relative to that measured when no drug (or vehicle) was administered.

Chain of human histamine H3 receptor (Q9Y5N1 whole entry): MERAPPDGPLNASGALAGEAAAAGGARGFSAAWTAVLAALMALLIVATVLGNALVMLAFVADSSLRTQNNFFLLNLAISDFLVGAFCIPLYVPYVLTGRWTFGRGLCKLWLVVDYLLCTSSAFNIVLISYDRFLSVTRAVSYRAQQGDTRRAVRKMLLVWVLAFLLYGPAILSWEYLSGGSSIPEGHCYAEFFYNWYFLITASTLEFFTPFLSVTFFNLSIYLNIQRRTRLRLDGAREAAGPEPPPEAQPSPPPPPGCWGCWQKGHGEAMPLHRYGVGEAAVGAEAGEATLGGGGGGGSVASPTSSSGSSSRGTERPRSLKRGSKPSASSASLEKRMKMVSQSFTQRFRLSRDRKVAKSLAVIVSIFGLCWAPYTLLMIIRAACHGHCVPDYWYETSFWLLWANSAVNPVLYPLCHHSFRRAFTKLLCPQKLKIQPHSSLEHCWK
T1 sequence (Q9QYN8 whole entry): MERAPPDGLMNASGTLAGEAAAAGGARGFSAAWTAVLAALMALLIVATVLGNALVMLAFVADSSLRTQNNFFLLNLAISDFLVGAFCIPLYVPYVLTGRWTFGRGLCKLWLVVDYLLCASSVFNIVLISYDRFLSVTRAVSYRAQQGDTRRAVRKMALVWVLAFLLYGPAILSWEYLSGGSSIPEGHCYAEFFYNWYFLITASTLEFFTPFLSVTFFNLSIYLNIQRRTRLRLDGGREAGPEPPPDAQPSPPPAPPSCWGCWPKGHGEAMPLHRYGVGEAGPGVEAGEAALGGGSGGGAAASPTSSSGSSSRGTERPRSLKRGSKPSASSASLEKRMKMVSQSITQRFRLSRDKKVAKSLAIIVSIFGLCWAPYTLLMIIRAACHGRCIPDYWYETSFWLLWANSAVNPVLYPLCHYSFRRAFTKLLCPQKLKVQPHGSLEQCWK

IC50 [1] | ED50 (H3 receptor) | SMILES | also measured
< 0.01 µM | ≤ 1 mg/kg | c1cn2cc(-c3ccc4c(c3)nc3n4CCN4CCCC[C@@H]4C3)ccc2n1 (single isomer, unassigned) [Compound 48] | number of wake and non-REM sleep bouts (Sprague-Dawley rats): decrease; wake bout duration (Sprague-Dawley rats): increase; normalized power in the 40-60 Hz range (EEG spectral analysis) (Sprague-Dawley rats): increase; wake promotion (Sprague-Dawley rats): wake promoting; time spent in REM sleep (Sprague-Dawley rats): no change; time spent in non-REM sleep (Sprague-Dawley rats): decrease; time spent in wake (Sprague-Dawley rats): increase
< 0.01 µM | ≥ 1 mg/kg | c1ccc2c(c1)CCN(Cc1ccc3c(c1)nc1n3CCN3CCCC[C@@H]3C1)C2 (single isomer, unassigned) [Compound 64] | –
< 0.01 µM | ≤ 1 mg/kg | c1cn2cc(-c3ccc4c(c3)nc3n4CCCN(C4CCC4)CC3)ccc2n1 [Compound 59, 3-cyclobutyl-10-(imidazo[1,2-a]pyridin-6-yl)-1,2,3,4,5,6-hexahydrobenzo[4,5]imidazo[1,2-a][1,5]diazocine] | number of wake and non-REM sleep bouts (Sprague-Dawley rats): decrease; wake bout duration (Sprague-Dawley rats): increase; normalized power in the 40-60 Hz range (EEG spectral analysis) (Sprague-Dawley rats): increase; wake promotion (Sprague-Dawley rats): wake promoting; time spent in REM sleep (Sprague-Dawley rats): no change; time spent in non-REM sleep (Sprague-Dawley rats): decrease; time spent in wake (Sprague-Dawley rats): increase
< 0.01 µM | – | c1ccc2c(c1)CCN(Cc1ccc3c(c1)nc1n3CCN3CCCC3C1)C2 (stereo not shown) [Compound 76, 10-((3,4-dihydroisoquinolin-2(1H)-yl)methyl)-2,3,5,6,13,13a-hexahydro-1H-benzo[4,5]imidazo[1,2-d]pyrrolo[2,1-g][1,4]diazepine] | –
< 0.1 µM | – | Brc1ccc2c(c1)nc1n2CCCN2CCCC2C1 (stereo not shown) [Compound 79, 11-bromo-1,2,3,5,6,7,14,14a-octahydrobenzo[4,5]imidazo[1,2-a]pyrrolo[2,1-d][1,5]diazocine] | –
< 0.01 µM | – | N#Cc1ccc(-c2ccc3c(c2)nc2n3CCCN3CCCC3C2)cc1 (stereo not shown) [Compound 80, 4-(1,2,3,5,6,7,14,14a-octahydrobenzo[4,5]imidazo[1,2-a]pyrrolo[2,1-d][1,5]diazocin-11-yl)benzonitrile] | –
< 0.01 µM | – | c1cn2cc(-c3ccc4c(c3)nc3n4CCCN4CCCC4C3)ccc2n1 (stereo not shown) [Compound 81, 11-(imidazo[1,2-a]pyridin-6-yl)-1,2,3,5,6,7,14,14a-octahydrobenzo[4,5]imidazo[1,2-a]pyrrolo[2,1-d][1,5]diazocine] | –
< 0.01 µM | ≥ 1 mg/kg | c1cc2c(cc1CN1CCOCC1)nc1n2CCCN(C2CCC2)CC1 [Compound 84, 4-((3-cyclobutyl-1,2,3,4,5,6-hexahydrobenzo[4,5]imidazo[1,2-a][1,5]diazocin-10-yl)methyl)morpholine] | –
< 0.01 µM | ≤ 1 mg/kg | c1ccc2c(c1)CCN(Cc1ccc3c(c1)nc1n3CCCN(C3CCC3)CC1)C2 [Compound 85, 3-cyclobutyl-10-((3,4-dihydroisoquinolin-2(1H)-yl)methyl)-1,2,3,4,5,6-hexahydrobenzo[4,5]imidazo[1,2-a][1,5]diazocine] | –
